Reference: article PMC2241863 (Nucleic Acids Research, 2007)

Key:
E. coli RPR = settings: cited from earlier work
human RNase P = settings: cited from earlier work
bacterial RNase P = settings: 'low-salt' buffer, cited from earlier work; for IC50: read-out: IC50 for inhibition of bacterial RNase P
[1] = system: E. coli RNase P holoenzyme; experiment: E. coli RNase P holoenzyme ptRNATyr processing assay, 'high-salt' buffer; type: biochemical, Escherichia coli; settings: 1 mM added to assay
[2] = system: E. coli RNase P holoenzyme; settings: cited from earlier work

In the case of `NC[C@@H]1O[C@H](O[C@H]2[C@@H](O)[C@H](O[C@@H]3[C@@H](O)[C@H](N)C[C@H](N)[C@H]3O[C@H]3O[C@H](CO)[C@@H](O)[C@H](O)[C@H]3N)O[C@@H]2CO)[C@H](N)[C@@H](O)[C@@H]1O` [Par, paromomycin], the “Fold weaker than NeoB in inhibiting bacterial RPR” value (E. coli RPR) is given as 6 fold.

For `N=C(N)NCCC[C@H](N)C(=O)NC[C@@H]1O[C@H](O[C@H]2[C@@H](O)[C@H](O[C@@H]3[C@@H](O)[C@H](NC(=O)[C@@H](N)CCCNC(=N)N)C[C@H](NC(=O)[C@@H](N)CCCNC(=N)N)[C@H]3O[C@H]3O[C@H](CNC(=O)[C@@H](N)CCCNC(=N)N)[C@@H](O)[C@H](O)[C@H]3NC(=O)[C@@H](N)CCCNC(=N)N)O[C@@H]2CO)[C@H](NC(=O)[C@@H](N)CCCNC(=N)N)[C@@H](O)[C@@H]1O` [NeoR6], the “Effectiveness against human RNase P compared with bacterial RNase P” value (human RNase P) is given as “not as effective”, the “Potency of NeoR6 relative to NeoB in inhibiting bacterial RNase P” value (bacterial RNase P) is given as 500 fold and the IC50 (bacterial RNase P) is given as 0.125 µM.

For `NCCCC[C@H](N)C(=O)O` [lysine], the “Effect on E. coli RNase P holoenzyme activity” value [1] was “no effect”.

For `N=C(N)NCCC[C@H](N)C(=O)O` [arginine], the “Effect on E. coli RNase P holoenzyme activity” value [1] was “no effect”.

In the case of `N=C(N)N` [guanidine], the “Effect on E. coli RNase P holoenzyme activity” value [1] is reported as “no effect”.

In the case of `NC[C@@H]1O[C@H](O[C@H]2[C@@H](O)[C@H](O[C@@H]3[C@@H](O)[C@H](N)C[C@H](N)[C@H]3O[C@H]3O[C@H](CN)[C@@H](O)[C@H](O)[C@H]3N)O[C@@H]2CO)[C@H](N)[C@@H](O)[C@@H]1O` [NeoB, neomycin B], the “Increase in IC50 with mutations in E. coli RPR L15 loop” value (E. coli RPR; L15 mutations that weaken Mg2+ binding) is listed as 3 fold, the IC50 (bacterial RNase P) is listed as 60 µM and the “Increase in IC50 in 'high-salt' instead of 'low-salt' buffer” value [2] is listed as 7 fold.
